Tests used:
[1] = test system: 3′TAR and 5′TAR microRNA; assay: Poly-A RT-PCR of TAR microRNA in ACH2 cells; format: cell-based, HIV-1; details: CR8#13 100 nm, 48 hrs
Procedure: RNA was extracted 48 hrs-post drug treatment. 500 ng of RNA from the microRNA-enriched fraction was used to generate cDNA using the Quantimir kit (SBI). RT reactions are performed followed by PCR in which a universal reverse primer is provided by the manufacturer. Specific microRNA forward primers are identical in sequence to the microRNA of interest. PCR products corresponding to the amplified microRNAs were resolved in a 3.5% (w/v) agarose gel. The PCR products are at around 67 bp as compared with the Fermentas 1 kb DNA Plus Ladder. Increased amounts of 3′ and 5′ TAR microRNA were observed post drug treatment.
For poly-A RT-PCR detection of microRNAs, 500 ng of RNA from the microRNA-enriched fraction was used to generate cDNA using the Quantimir kit (SBI) according to the manufacturer's protocol. Briefly, small RNA species are poly-adenylated and then reverse transcription reactions are performed with a company-provided RT primer. For PCR, a universal reverse primer is provided by the manufacturer. Specific microRNA forward primers are identical in sequence to the microRNA of interest. PCR products corresponding to the amplified microRNAs were separated in a 3.5% (w/v) agarose gel and quantified using the Kodak 1D software. […]

[2] = test system: CIITA, IL-8, CAD, MCL-1, Cyclin D1, and PBX-1; format: cell-based
Procedure: 293T cells were treated with three different concentrations of CR8#13 (20 nm, 50 nm, and 200 nm). Cells were processed 48 hrs-post treatment for RT-PCR. Effector cdk9 genes such as CIITA, IL-8, CAD, MCL-1, Cyclin D1, and PBX-1 were used in the RT-PCR.
For mRNA analysis of cdk9 related genes following drug treatments, total RNA was isolated from cells using Trizol (Invitrogen) according to the manufacturer's protocol. A total of 1 μg of RNA from the RNA fraction was treated with 0.25mg/ml DNase I for 60 min, followed by heat inactivation at 65° C. for 15 min. A total of 1 μg of total RNA was used to generate cDNA with the iScript cDNA Synthesis kit (Bio-Rad) using oligo-dT reverse primers.
A determination whether inhibition cdk9 by compounds of the present invention altered the responsiveness of cdk9 dependent cellular genes, was made by the present inventor by testing the effect of CR8#13 (BJFP1154), of viral transcriptional activity utilizing a known set of cellular and viral genes.

[3] = test system: HIV-1 LTR-CAT reporter; assay: CAT assay of Tat-mediated transactivation in HCT116 WT and Dicer-/- cells; format: cell-based; details: HCT116 WT (Dicer) versus Dicer-/-; 48 hrs; Flavopiridol, CR8#13, F07#13 100 nm, 9AA 1000 nm
Procedure: Six hours later, the transfected cells were treated with DMSO, Flavopirodol (100 nm), CR8#13 (100 nm), F07#13 (100 nm), and 9AA (1000 nm). Treated cells were incubated in complete DMEM for 48 hrs at 37° C. Cells were harvested and cell extracts were used for CAT analysis. One tenth the amount of HCT116 Dicer−/−extract compared to HCT116 WT was used for CAT analysis. […] The corresponding bar graphs in A and B show values that represent the percentage of conversion of the [14C] chloramphenicol substrate in the CAT assay.
Various cells lines were transfected with the HIV-1 LTRCAT plasmid and pc-Tat to initiate the LTR transcription, and subsequently subjected to various drug treatments. After 48 hrs, cells were lysed and CAT assays were performed as previously described (Guendel et al, 2009; Van Duyne et al, 2008; Easley et al, 2010).
To evaluate the role on microRNA machinery in inhibition of viral transcription activity, HCT116 colon carcinoma cell lines that either contained a WT Dicer (HCT116 WT) or lacked the Dicer protein (HCT116 Dicer-−/−) were first transfected with the HIV-1 LTR-CAT reporter construct. The HIV-1 LTR transcription was activated with pc-Tat and following incubation for 6 hours was treated with DMSO (negative control), Flavopiridol (positive control), CR8#13, F07#13, or 9AA.
Cells were harvested 48 hrs-post treatment and processed for CAT assays (FIGS. 3A and B). […] Based on this observation the inventors hypothesize that the microRNA machinery, Dicer and Drosha, plays an inhibitory role in HIV-1 transcription.

CC(C)c1cnn2c(NCc3ccc(-c4ccccn4)cc3)nc(NC[C@H](O)CO)nc12.O=C(O)/C=C/C(=O)O [BJFP1154]
5′TAR microRNA levels [1]: increase in the 5′TAR microRNA levels | transcription of cdk9 responsive genes [2]: did not inhibit transcription of genes that are cdk9 responsive | inhibition of viral transcription (CAT) [3]: inhibited viral transcription significantly better in cells that contained Dicer
